Assay results published in patent publication US4087421A, “Substituted benzodiazepines and method of use” (American Cyanamid Company, priority 1977, dated 1978).
“And” between values parts separate entries of the source, which are not always exact repeats. Identical values can stand only once.

How the values were obtained:
[1] = "writhing syndrome" test for analgesic activity (phenyl p-quinone); assay type: in vivo, male Swiss albino mice; conditions: control approximately 30 per pair, active if 18 or less
Protocol: This method is based upon the reduction of the number of writhes following the intraperitoneal injection of one mg./kg. of body weight of phenyl p-quinone in male Swiss albino mice weighing 15-25 g. The syndrome is characterized by intermittent contractions of the abdomen, twisting and turning of the trunk, and extension of the hind legs beginning 3 to 5 minutes after injection of the phenyl p-quinone. The test compounds are administered orally at the indicated dose to groups of 2 mice each, 30 minutes before injection of the phenyl p-quinone.

[2] = Prevention of reserpine-induced hypothermia in rats; assay type: in vivo; conditions: for ED50: Rattus norvegicus, oral, dose column in mg/kg, read-out: ED50 (95% C.L.)
Protocol: Groups of 5 rats were treated orally with graded doses of the test compounds. One hour later the animals were treated with reserpine (solubilized in propylene glycol and citric acid) at a dose of 5 mg/kg intraperitoneally. Rectal temperatures were measured using a YSI Telethermometer. Temperatures were recorded just prior to treatment, one hour later just prior to reserpine administration and at hourly intervals following reserpine administration for 5 hours. […]

[3] = Enhancement of yohimbine lethality in mice; assay type: in vivo; conditions: yohimbine 34 mg/kg
Protocol: The test compounds were administered intraperitoneally, at various dose levels, to groups of 10 mice. One hour later all mice received yohimbine at a dose (34 mg/kg) estimated to have a lethal effect in 4% of the mice. Deaths were recorded 18 to 24 hours later.

[4] = reduction of spontaneous motor activity (Animax Activity Counter); assay type: in vivo; conditions: Rattus norvegicus, 5 min; oral, rats, 5 minute period; read-out: MDD50 (effective dose that causes a 50% reduction in motor activity)
Protocol: A useful test for anti-psychotic activity consists of measuring the reduction of spontaneous motor activity in animals.
Groups of 4 rats are treated orally with the test compound dissolved or suspended in starch vehicle at the maximum tolerated dose. At the estimated time of peak effect, the animals are placed singly into an Animax Activity Counter and the activity of each rat is recorded over a 5 minute period. The activity counts are compared to historical or parallel control values to determine significant increased or decreased locomotor activity.

[5] = Discrete Trial Conditioned Avoidance Test; assay type: in vivo, male Long-Evans rats; conditions: Rattus norvegicus, read-out: ED50 (reduces avoidance response by 50% as compared to controls)
Protocol: In this test the compounds are administered orally to male Long-Evans rats in a universal starch vehicle. The rats have been pre-conditioned to make a 70% avoidance response. The rats are placed in individual cages and a warning tone is sounded every 20 seconds. Each rat has the opportunity to press a bar which, if done within 5 seconds, prevents an electric shock through the grid floor of the cage and is termed an avoidance response. Each rat is given 50 trials and a score of avoidance responses is kept. The drug is administered at various dose levels. […]

[6] = Inhibition of tetrabenazine induced depression of exploratory behavior in mice; assay type: in vivo; conditions: for Number Responded/Number Treated: intraperitoneally or orally, 1 h before tetrabenazine 30 mg/kg
Protocol: Varying doses of the test compounds are administered intraperitoneally or orally to 5 mice one hour before the administration of tetrabenazine hexamate at an intraperitoneal dose of 30 mg/kg which is known to depress markedly the exploratory behavior of normal mice. Thirty minutes later the mice are tested for their exploratoy behavior. Individual mice are placed in the center of a horizontal disc. Inhibition of the depression induced by tetrabenazine is considered present if the mice perform one or more of the following actions within 10 seconds after being placed on the disc:
(1) Animals move to the edge of the disc and pear over the side.
(2) Animals move 180° in place.
(3) Animals display a head movement of 90° immediately followed by a head movement in the opposite direction of at least 45°.
Administration of the test compounds to additional groups of 5 mice is repeated, the numbers of individual animals showing an anti-depressant response (normal exploratory behavior) is recorded and the results are analyzed by the following scheme (statistically standardized; significant P = less than 0.05).
The results from several dose levels (acceptance in at least two sequential test procedures) are then used to establish the Range of Active Doses.

reversible ptosis test = assay type: in vivo; conditions: oral, rats
Protocol: A useful test for anti-psychotic activity consists of measuring ptosis in animals.
Ptosis is defined as closure of the palpebral aperture (eyelid) greater than 70%. The compounds to be tested were administered orally to groups of 10 rats each. Periodically after treatment the rats were gently placed on the cage top and examined for 90 seconds for signs of ptosis. This manipulation eliminates spontaneous ptosis. The rats were then dropped from a height of about 18 inches (exteroceptive stimulation) onto the cage top to test for reversibility of ptosis. Reversible ptosis is defined as less than 70% closure of the palpebral aperture for longer than one minute after the exteroceptive stimulation and is indicative of neuroleptic activity of the drug administered.

[7] = modified Randall and Selitto analgesic test, brewers yeast inflamed paw; assay type: in vivo, rats; conditions: 200 mg/Kg oral; two hours after yeast; active if T/C ≥ 1.37
Protocol: To determine analgesic activity, a modification of the method of Randall and Selitto [Arch. Int. […] This test measures the pain threshold of rats whose paws are made sensitive to pressure by the injection of 0.1 ml. of a 20% aqueous suspension of brewers yeast into the plantar surface of the left hind paw. Constantly increasing force (16 g/second) is applied to the swollen paw using an Analgesy Meter, Ugo Basile. The pressure is cut off at 250 g. of force when there is no response (sudden struggle or vocalization). […] Pressure-pain thresholds are always recorded two hours after administration of Brewers' yeast. Test compounds are administered at the same time as the yeast, at an oral dose of 200 mg/Kg. Ratios of treated (T)/control (C) reaction thresholds are calculated as estimates of analgesic efficacy (degree of analgesia obtainable).

For CN1CCN(C2=Nc3ccccc3N(C)c3cscc32)CC1 [4-Methyl-10-(4-methyl-1-piperazinyl)-4H-thieno[3,4-b][1,5]benzodiazepine], the “No. of Writhes Per Pair” value ([1]; 50 mg/kg oral) was 0, the “Percent of Animals Showing > Two Standard Deviations in Rectal Temperature Over Control Means” value ([2]; 0.20 mg/kg oral, 2 hours after reserpine) was 0% and the “Percent of Animals Showing > Two Standard Deviations in Rectal Temperature Over Control Means” value ([2]; 0.20 mg/kg oral, 3 hours after reserpine) was 0%. For the same compound, the “Percent of Animals Showing > Two Standard Deviations in Rectal Temperature Over Control Means” value ([2]; 0.20 mg/kg oral, 4 hours after reserpine) was 0%, the “Percent of Animals Showing > Two Standard Deviations in Rectal Temperature Over Control Means” value ([2]; 0.20 mg/kg oral, 5 hours after reserpine) was 0% and the “Percent of Animals Showing > Two Standard Deviations in Rectal Temperature Over Control Means” value ([2]; 0.39 mg/kg oral, 2 hours after reserpine) was 0%. The “Percent of Animals Showing > Two Standard Deviations in Rectal Temperature Over Control Means” value ([2]; 0.39 mg/kg oral, 3 hours after reserpine) was 0%, the “Percent of Animals Showing > Two Standard Deviations in Rectal Temperature Over Control Means” value ([2]; 0.39 mg/kg oral, 4 hours after reserpine) was 0% and the “Percent of Animals Showing > Two Standard Deviations in Rectal Temperature Over Control Means” value ([2]; 0.39 mg/kg oral, 5 hours after reserpine) was 0%. The “Percent of Animals Showing > Two Standard Deviations in Rectal Temperature Over Control Means” value ([2]; 0.78 mg/kg oral, 2 hours after reserpine) was 33%, the “Percent of Animals Showing > Two Standard Deviations in Rectal Temperature Over Control Means” value ([2]; 0.78 mg/kg oral, 3 hours after reserpine) was 7% and the “Percent of Animals Showing > Two Standard Deviations in Rectal Temperature Over Control Means” value ([2]; 0.78 mg/kg oral, 4 hours after reserpine) was 7%. The “Percent of Animals Showing > Two Standard Deviations in Rectal Temperature Over Control Means” value ([2]; 0.78 mg/kg oral, 5 hours after reserpine) was 27%, the “Percent of Animals Showing > Two Standard Deviations in Rectal Temperature Over Control Means” value ([2]; 1.56 mg/kg oral, 2 hours after reserpine) was 100% and the “Percent of Animals Showing > Two Standard Deviations in Rectal Temperature Over Control Means” value ([2]; 1.56 mg/kg oral, 3 hours after reserpine) was 40%. For the same compound, the “Percent of Animals Showing > Two Standard Deviations in Rectal Temperature Over Control Means” value ([2]; 1.56 mg/kg oral, 4 hours after reserpine) was 0%, the “Percent of Animals Showing > Two Standard Deviations in Rectal Temperature Over Control Means” value ([2]; 1.56 mg/kg oral, 5 hours after reserpine) was 60% and the “Percent of Animals Showing > Two Standard Deviations in Rectal Temperature Over Control Means” value ([2]; 3.13 mg/kg oral, 2 hours after reserpine) was 50%. For the same compound, the “Percent of Animals Showing > Two Standard Deviations in Rectal Temperature Over Control Means” value ([2]; 3.13 mg/kg oral, 3 hours after reserpine) was 30%, the “Percent of Animals Showing > Two Standard Deviations in Rectal Temperature Over Control Means” value ([2]; 3.13 mg/kg oral, 4 hours after reserpine) was 30% and the “Percent of Animals Showing > Two Standard Deviations in Rectal Temperature Over Control Means” value ([2]; 3.13 mg/kg oral, 5 hours after reserpine) was 20%. The “Percent of Animals Showing > Two Standard Deviations in Rectal Temperature Over Control Means” value ([2]; 6.25 mg/kg oral, 2 hours after reserpine) was 80%, the “Percent of Animals Showing > Two Standard Deviations in Rectal Temperature Over Control Means” value ([2]; 6.25 mg/kg oral, 3 hours after reserpine) was 80% and the “Percent of Animals Showing > Two Standard Deviations in Rectal Temperature Over Control Means” value ([2]; 6.25 mg/kg oral, 4 hours after reserpine) was 80%. For the same compound, the “Percent of Animals Showing > Two Standard Deviations in Rectal Temperature Over Control Means” value ([2]; 6.25 mg/kg oral, 5 hours after reserpine) was 0%, the “Percent of Animals Showing > Two Standard Deviations in Rectal Temperature Over Control Means” value ([2]; 12.5 mg/kg oral, 2 hours after reserpine) was 100% and the “Percent of Animals Showing > Two Standard Deviations in Rectal Temperature Over Control Means” value ([2]; 12.5 mg/kg oral, 3 hours after reserpine) was 100%. The “Percent of Animals Showing > Two Standard Deviations in Rectal Temperature Over Control Means” value ([2]; 12.5 mg/kg oral, 4 hours after reserpine) was 100%, the “Percent of Animals Showing > Two Standard Deviations in Rectal Temperature Over Control Means” value ([2]; 12.5 mg/kg oral, 5 hours after reserpine) was 20% and the ED50 ([2]; 2 hours after reserpine) was 1.6 mg/kg. For the same compound, the ED50 ([2]; 3 hours after reserpine) was 2.9 mg/kg, the ED50 ([2]; 4 hours after reserpine) was 3.5 mg/kg and the “Number Dead/Number Treated” value ([3]; 10 mg/kg intraperitoneal, 18 hours) was 3/10. The “Number Dead/Number Treated” value ([3]; 10 mg/kg intraperitoneal, 24 hours) was 8.10, the “Number Dead/Number Treated” value ([3]; 20 mg/kg intraperitoneal, 18 hours) was 6/10 and the “Number Dead/Number Treated” value ([3]; 20 mg/kg intraperitoneal, 24 hours) was 8/10. The “Number Dead/Number Treated” value ([3]; 40 mg/kg intraperitoneal, 18 hours) was 4/10, the “Number Dead/Number Treated” value ([3]; 40 mg/kg intraperitoneal, 24 hours) was 8/10 and the ED50 [4] was 12 mg/kg. The ED50 ([5]; oral, male Long-Evans rats) was 17 mg/kg, the “Number Responded/Number Treated” value ([6]; 0.78 mg/kg) was 1/10 and the “Number Responded/Number Treated” value ([6]; 1.56 mg/kg) was 3/10. For the same compound, the “Number Responded/Number Treated” value ([6]; 3.13 mg/kg) was 6/10, the “Number Responded/Number Treated” value ([6]; 6.25 mg/kg) was 6/10 and the “Number Responded/Number Treated” value ([6]; 12.5 mg/kg) was 7/10. For the same compound, the “Number Responded/Number Treated” value ([6]; 25.0 mg/kg) was 8/10 and the ED50 ([6]; Mus musculus, calculated by method of Finney, dose column in mg/kg, read-out: ED50 (95% C.L.)) was 4.2 mg/kg.

For CN1CCN(C2=Nc3ccccc3Nc3cscc32)CC1 [10-(4-Methyl-1-piperazinyl)-4H-thieno[3,4-b][1,5]benzodiazepine], the “ED50 (dose estimated to create reversible ptosis in 50% of the animals)” value (reversible ptosis test) was 13 mg/kg, the “No. of Writhes Per Pair” value ([1]; 6.25 mg/kg oral) was 4 and 2 and the “Ratio T/C (treated/control reaction thresholds)” value [7] was 1.57. It also gave an ED50 [4] of 6.1 mg/kg and an ED50 ([5]; oral, male Long-Evans rats) of 7 mg/kg.

With CN1CCN(C2=Nc3cc(Cl)ccc3N(C)c3cscc32)CC1.[O-][Cl+3]([O-])([O-])O.[O-][Cl+3]([O-])([O-])O [7-Chloro-4-methyl-10-(4-methyl-1-piperazinyl)-4H-thieno[3,4-b][1,5]benzodiazepine diperchlorate] the “Ratio T/C (treated/control reaction thresholds)” value [7] was 1.55 and the ED50 [4] was 25 mg/kg.

Compound CN(C)CCCN1c2ccccc2Sc2ccc(Cl)cc21 [Chlorpromazine, reference compound] has an ED50 ([5]; po) of 9 mg/kg.

With CN1CCN(C2=Nc3cc(Cl)ccc3Nc3cscc32)CC1.[O-][Cl+3]([O-])([O-])O.[O-][Cl+3]([O-])([O-])O [7-Chloro-10-(4-methyl-1-piperazinyl)-4H-thieno[3,4-b][1,5]benzodiazepine diperchlorate] the “ED50 (dose estimated to create reversible ptosis in 50% of the animals)” value (reversible ptosis test) was 10 mg/kg, the “No. of Writhes Per Pair” value ([1]; 1.6 mg/kg oral) was 1 and 2 and the ED50 [4] was 20 mg/kg.
